Assay results from article PMC6094398, “New tools for evaluating protein tyrosine sulfation: tyrosylprotein sulfotransferases (TPSTs) are novel targets for RAF protein kinase inhibitors” (Biochemical Journal, 2018).
“And” between values parts separate entries of the source, which are not always exact repeats. Equal values may be shown once. Read-outs that look alike come from different tables or passages of the source.

Experiments:
human TPST1 [1] = molecular target: T1, human TPST1 (Homo sapiens, UniProt O60507); assay: EZ Reader II microfluidic mobility-shift CC4-tide sulfation assay, TPST1; type: biochemical; conditions: for inhibition at 20 µM: read-out: TPST1 enzyme inhibition, PKIS screen; for IC50 / TPST1 inhibition at 400 μM: 10 µM PAPS; for TPST1 inhibition at 400 μM: Fig 8A, inhibitor 400 µM; for Sensitivity of TPST1 inhibition to the concentration of PAPS: increasing PAPS, fixed 20 µM PAP or 100 µM ATP, CoA, dephospho-CoA
T1 construct: human TPST1 (residues Lys43–Leu360) and TPST2 (residues Gly43–Leu359) enzymes lacking the transmembrane domains; made in house; host or cells: E. coli BL21 (DE3) pLysS
T1 sequence (O60507 43-360): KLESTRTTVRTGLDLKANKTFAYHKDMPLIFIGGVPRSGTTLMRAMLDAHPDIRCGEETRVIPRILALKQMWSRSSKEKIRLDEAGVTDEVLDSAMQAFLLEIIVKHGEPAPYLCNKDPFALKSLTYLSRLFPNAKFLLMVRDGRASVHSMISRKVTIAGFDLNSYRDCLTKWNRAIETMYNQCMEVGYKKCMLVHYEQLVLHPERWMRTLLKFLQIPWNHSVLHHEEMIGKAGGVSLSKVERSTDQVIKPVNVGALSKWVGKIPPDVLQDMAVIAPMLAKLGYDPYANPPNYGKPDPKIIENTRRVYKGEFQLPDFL

human TPST1 [2] = molecular target: T1, human TPST1; assay: GST-CC4-tide tyrosine sulfation by TPST1, immunoblotting with monoclonal sulfotyrosine antibody; type: biochemical; conditions: GST-CC4-tide 1 µg, 10 µM PAPS, increasing concentrations of inhibitor
Experimental: After the assay, proteins were denatured in Laemmli sample buffer, heated at 95°C for 5 min and then analysed by SDS–PAGE with 10% (v/v) polyacrylamide gels. Gels were stained and destained using a standard Coomassie Brilliant Blue protocol. To evaluate protein sulfation and phosphorylation by immunoblotting, standard western blotting procedures were followed using monoclonal anti-sulfotyrosine antibody clone Sulfo-1C-A2 (Millipore) generated using a phage display procedure and sulfotyrosine selection peptide antigens in the presence of appropriate positive and negative controls, and modifications visualised using the ECL reagent.

[3] = test system: heparin sulfate 2-O sulfotransferase HS2ST; parameters: method as in PMID 29934491; conditions: cited from earlier work
human TPST1 [4] = molecular target: T1, human TPST1; assay: Differential scanning fluorimetry (thermal shift) assay with TPST1; type: binding; conditions: DSF, TPST1 5 µM, 0.5 mM nucleotide; for Thermal shift of TPST1 (in words): panel of nucleotide-based cofactors; for ΔTm TPST1: relative to buffer control
human TPST2 = molecular target: T2, human TPST2 (Homo sapiens, UniProt O60704); assay: Differential scanning fluorimetry (thermal shift) assay with TPST2; type: binding; conditions: DSF, TPST2 5 µM, 0.5 mM nucleotide; for Thermal shift of TPST2 (in words): panel of nucleotide-based cofactors
T2 construct: TPST2 (residues Gly43–Leu359) enzymes lacking the transmembrane domains; made in house; host or cells: E. coli BL21 (DE3) pLysS
T2 sequence (O60704 43-359): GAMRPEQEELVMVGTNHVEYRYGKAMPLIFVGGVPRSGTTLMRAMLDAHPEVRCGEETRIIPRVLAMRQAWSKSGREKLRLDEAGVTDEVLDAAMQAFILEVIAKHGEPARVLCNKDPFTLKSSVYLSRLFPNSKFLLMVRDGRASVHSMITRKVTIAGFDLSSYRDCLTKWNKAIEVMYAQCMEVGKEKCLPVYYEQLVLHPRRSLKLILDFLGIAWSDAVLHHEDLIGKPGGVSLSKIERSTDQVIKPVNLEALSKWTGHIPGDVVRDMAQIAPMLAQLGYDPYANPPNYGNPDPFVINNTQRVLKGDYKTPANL

TPST2 = conditions: cited from earlier work
TPST1 = conditions: read-out: Km for PAPS, TPST1, literature reports; cited from earlier work
[5] = Fig 7C, TPST1 0.1 µM, CC4-tide, 30 min at 37°C, duplicate, read-out: TPST1 estimated IC50, PKIS inhibitors
[6] = Fig 8B, TPST1 0.1 µM pre-incubated with compound, read-out: TPST1 estimated IC50, RAF kinase inhibitors
[7] = Fig 5A, CC4-tide, 0.1 µM TPST1, absence of MgCl2, read-out: IC50 TPST1, panel of nucleotides

Which inhibition at 20 µM (human TPST1 [1]) does the source give for `CNC(=O)c1cncc(/C=C/c2ccccc2Cl)c1` [GW445017X] here?
Its inhibition at 20 µM is over 40%.

For `O=C1Nc2ccc(I)cc2C1=Cc1cc(Br)c(O)c(Br)c1` [GW305074X], which IC50 (human TPST1 [1]; [5]) is on record?
Its IC50 is about 5 µM.

What about the “Inhibition of GST-CC4-tide tyrosine sulfation by TPST1 (immunoblot, in words)” value (human TPST1 [2]) of the same compound?
The value was “low-micromolar inhibitor”.

For `O=C1Nc2ccc(-c3cccnc3)cc2C1=Cc1cc(Br)c(O)c(Br)c1` [GW429374A], which IC50 (human TPST1 [1]; [5]) is on record?
The IC50 was 9.8 µM.

With `Nc1nc(-c2ccc3c(c2)C(=Cc2cc(Br)c(O)c(Br)c2)C(=O)N3)cs1` [GW407323A] as the compound, how does the IC50 (human TPST1 [1]; [5]) read?
Its IC50 is 6 µM.

With `Cc1ccc(C(=O)Nc2ccc(S(=O)(=O)O)c3cc(S(=O)(=O)O)cc(S(=O)(=O)O)c23)cc1NC(=O)c1cccc(NC(=O)Nc2cccc(C(=O)Nc3cc(C(=O)Nc4ccc(S(=O)(=O)O)c5cc(S(=O)(=O)O)cc(S(=O)(=O)O)c45)ccc3C)c2)c1` [Suramin, suramin] as the compound, how does the “HS2ST inhibition in vitro (in words)” value [3] read?
The value was “inhibitory activity”.

Which “TPST1 inhibition at 400 μM” value (human TPST1 [1]; TPST1 0.1 µM, duplicate) does the source give for `CCCS(=O)(=O)Nc1ccc(F)c(C(=O)c2c[nH]c3ncc(-c4ccc(Cl)cc4)cc23)c1F` [Vemurafenib, vemurafenib] here?
Its value is “essentially complete TPST1 inhibition”.

What about the IC50 (human TPST1 [1]; [6]) of the same compound?
The IC50 was 42.9 µM and ~40 µM.

Which “TPST1 inhibition at 400 μM” value (human TPST1 [1]; TPST1 0.1 µM, duplicate) does the source give for `CNC(=O)c1cc(Oc2ccc(NC(=O)Nc3ccc(Cl)c(C(F)(F)F)c3)cc2)ccn1` [Sorafenib, sorafenib] here?
Its value is “essentially complete TPST1 inhibition”.

What about the IC50 (human TPST1 [1]; [6]) of the same compound?
The IC50 was 119 µM.

For `Cc1cc(-c2ccco2)cc(C)c1/C=C/c1cncc(-c2nn[nH]n2)c1` [GW458344A], which inhibition at 20 µM (human TPST1 [1]) is on record?
Its inhibition at 20 µM is over 40%.

Which results are given for `Nc1ncnc2c1ncn2C1OC(COP(=O)(O)O)C(OP(=O)(O)O)C1O` (stereo not shown) [PAP, adenosine 3′–5′-diphosphate]?
Thermal shift of TPST1 (in words) (human TPST1 [4]): marked stabilisation; ΔTm TPST1 (human TPST1 [4]): ~10 °C; Thermal shift of TPST2 (in words) (human TPST2): marked stabilisation; Sensitivity of TPST1 inhibition to the concentration of PAPS (human TPST1 [1]; CC4-tide): highly sensitive; IC50 (human TPST1 [1]; [7]): 1.5 µM

With `CC(C)(COP(=O)(O)OP(=O)(O)OC[C@H]1O[C@@H](n2cnc3c(N)ncnc32)[C@H](O)[C@@H]1O)[C@@H](O)C(=O)NCCC(=O)NCCS` [dephospho-CoA, 3′-dephosphoCoA] as the compound, how does the “Thermal shift of TPST1 (in words)” value (human TPST1 [4]) read?
Its value is “unable to induce thermal shifts”.

What about the “Thermal shift of TPST2 (in words)” value (human TPST2) of the same compound?
The value was “unable to induce thermal shifts”.

And the “Sensitivity of TPST1 inhibition to the concentration of PAPS” value (human TPST1 [1]; CC4-tide)?
The value was “largely insensitive”.

And the IC50 (human TPST1 [1]; [7])?
Its IC50 is 166 µM.

Which IC50 (human TPST1 [1]; [7]) does the source give for `Nc1ncnc2c1ncn2[C@@H]1O[C@H](COP(=O)(O)OP(=O)(O)OP(=O)(O)O)[C@@H](O)[C@H]1O` [ATP, adenosine 5′-triphosphate] here?
Its IC50 is 379 µM.

With `Nc1ncnc2c1ncn2[C@@H]1O[C@H](COP(=O)(O)O)[C@@H](O)[C@H]1O` [AMP, adenosine 5′-monophosphate] as the compound, how does the “Thermal shift of TPST1 (in words)” value (human TPST1 [4]) read?
The value was “lack of significant thermal shift”.

What about the “Thermal shift of TPST2 (in words)” value (human TPST2) of the same compound?
The value was “lack of significant thermal shift”.

What does the source list for `Nc1ncnc2c1ncn2C1OC(COP(=O)(O)OS(=O)(=O)O)C(OP(=O)(O)O)C1O` (stereo not shown) [PAPS, adenosine 3′-phosphate 5′-phosphosulfate]?
ΔTm TPST1 (human TPST1 [4]): ~3 °C; ΔTm TPST2 (human TPST2; relative to buffer control): ~9 °C; Km (TPST2; read-out: Km for PAPS, TPST2 obtained from transfected CHO cell medium): 12 µM; Km (TPST2; read-out: Km for PAPS, recombinant TPST2 isolated from baculovirus-infected insect cells): ~5 µM; Km (TPST1): 2 to 5 µM
